Assay results taken from patent US5478818A, “Estradiol derivative-alkylating agent conjugate with reduced hormonal activity, process for preparing the same, compounds useful for the preparation thereof, and growth inhibiting composition containing the conjugate or estradiol derivative” (priority 1993, dated 1995).
Where two headings read alike, the source gives them in different places.

Columns and labels:
uterus = test: Estrogen action (uterine weight tests); format: in vivo; conditions: once hypodermically, 3-week-old Wistar female rats, 24 hours; higher = weaker estrogen action
Method: The estrogen action of the conjugate and the estradiol derivative were each examined according to the uterine weight tests. The estrogen action was found diminished.
The test compounds and estradiol dissolved in sesame oil (containing 3% benzyl alcohol) were each administered once hypodermically to 3-week-old Wistar female rats. 24 hours later, the uterus of each test rat was removed and its weight (ratio to the body weight) was measured. From the relation between the uterus weight/body weight ratio and the dosage, the compound dosage that gives a uterus weight/body weight ratio twice that in the control group was determined. The dosages of the test compounds are shown as a ratio to the dosage of estradiol. 3-Benzoyloxy-1,3,5(10)-estratriene-17β-[4-[p-[bis (2-chloroethyl)amino]phenyl]-butyryloxy]acetate was used as a comparative compound.

SC-115 cells = test: Growth inhibiting effect in testosterone-added system using SC-115 cells (tritium-labeled thymidine uptake); format: cell-based
Method: Uptake of tritium-labeled thymidine was examined in a serum free culture system using testosterone-dependent SC-115 cells. Strong inhibitory effects of the conjugate and the estradiol derivatives were shown.
The SC-115 cells were cultured on a 96-well microplate (5,000 cells/well) for 24 hours with a culture medium (200 μl/well; Ham's F-12/MEM-E (98% ), dextran-treated fetal calf serum (2%) and testosterone (1×10^-8 M)). The culture medium was replaced with fresh medium containing the test compound (Ham's F-12/MEM-E, bovine serum albumin (0.1%), testosterone (1×10^-8 M) and test compound of various concentrations). The culture medium was replaced every two days, and culture was continued for 7 days. Thymidine (1 μci/ml, tritium-labeled)was added, and 5 hours later, the culture medium was removed. The cells were washed with PBS and then washed twice with ice-cold trichloroacetic acid (10%). Then the cells were dissolved in 0.5N sodium hydroxide and neutralized with 0.5N hydrochloric acid. The radioactivity of the neutralized solution was measured by a liquid scintillation counter to determine the growth inhibiting effect (IC50).

DU-145 cells = test: Growth inhibiting effect in bFGF-added system using DU-145 cells (tritium-labeled thymidine uptake); format: cell-based
Method: Uptake of tritium-labeled thymidine was examined in a serum free culture system using bFGF-dependent DU-145 cells. Strong inhibitory effects of the conjugate and the estradiol derivative were shown.
The DU-145 cells were cultured on a 96-well microplate (5,000 cells/well) for 24 hours with a culture medium (200 μl/well; Ham's F-12/MEM-E (98%) and dextran-treated fetal calf serum (2%)). Then the culture medium was replaced with fresh medium containing the test compound (Ham's F-12/MEM-E, bovine serum albumin (0.1%), bovine pituitary-derived bFGF (1 ng/ml) and the test compound of various concentrations). Culture with this medium was continued for 4 days. Thymidine (1 μci/ml, tritium-labeled) was added, and 5 hours layer, the culture medium was removed. The cells were washed with PBS and then washed twice with ice-cold trichloroacetic acid (10%). Then the cells were dissolved in 0.5N sodium hydroxide and neutralized with 0.5N hydrochloric acid. The radioactivity of the neutralized solution was measured by a liquid scintillation counter to determine the growth inhibiting effect (IC50).

[1] = SC-115 cells, testosterone 1×10^-8 M, 7 days, read-out: IC50
[2] = DU-145 cells, bFGF 1 ng/ml, 4 days, read-out: IC50
[3] = 168 h, SC-115 cells, testosterone 1×10^-8 M, 7 days, read-out: IC50

1-[3-benzoyloxy-1,3,5(10)-estratriene-1-methyl-17β-oxy]-2-[4-[p-[bis(2-hydroxyethyl)amino]phenyl]-butoxy]ethane [Compound I-3]
Dosage that gives a uterus wt/body wt ratio twice that in control group (ratio to estradiol dosage) (uterus): > 7000 ratio to estradiol dosage | IC50 (SC-115 cells; [1]): 0.2 µM | IC50 (DU-145 cells; [2]): 9.2 µM

C[C@]12CC[C@@H]3c4ccc(OC(=O)c5ccccc5)cc4CC[C@H]3[C@@H]1CC[C@@H]2OC(=O)COC(=O)CCCc1ccc(N(CCCl)CCCl)cc1 [Comparative compound, 3-Benzoyloxy-1,3,5(10)-estratriene-17β-[4-[p-[bis (2-chloroethyl)amino]phenyl]-butyryloxy]acetate, reference compound]
Dosage that gives a uterus wt/body wt ratio twice that in control group (ratio to estradiol dosage) (uterus): 200 ratio to estradiol dosage | IC50 (SC-115 cells; 168 h): 2.6 µM | IC50 (DU-145 cells; Homo sapiens, DU-145, 96 h, read-out: IC50 (ND*: no inhibiting action observed)): > 10 µM

C[C@]12CC[C@@H]3c4ccc(OCc5ccccc5)cc4CC[C@H]3[C@@H]1CC[C@@H]2OCCOCCCCc1ccc(N(CCCl)CCCl)cc1 [Compound I-1, 1-[3-benzyloxy-1,3,5(10) -estratriene-17β-oxy]-2-[4-[p-[bis (2-chloroethyl)amino]phenyl]butoxy]ethane]
Dosage that gives a uterus wt/body wt ratio twice that in control group (ratio to estradiol dosage) (uterus): > 7000 ratio to estradiol dosage | IC50 (SC-115 cells; [1]): 1.2 µM | IC50 (DU-145 cells; [2]): 4.6 µM

C[C@]12CC[C@@H]3c4ccc(OC(=O)c5ccccc5)cc4CC[C@H]3[C@@H]1CC[C@@H]2OCCOCCCCc1ccc(N(CCCl)CCCl)cc1 [Compound I-2, 1-[3-benzoyloxy-1,3,5(10)-estratriene-17β-oxy]-2-[4-[p-[bis (2-chloroethyl)amino]phenyl]butoxy]ethane]
Dosage that gives a uterus wt/body wt ratio twice that in control group (ratio to estradiol dosage) (uterus): > 7000 ratio to estradiol dosage | IC50 (SC-115 cells; [1]): 1.3 µM | IC50 (DU-145 cells; [2]): 7.8 µM

C[C@]12CC[C@@H]3c4ccc(OC(=O)c5ccccc5)cc4CC[C@H]3[C@@H]1CC[C@@H]2OCCOCCCCc1ccc(N(CCO)CCO)cc1 [Compound I-4]
Dosage that gives a uterus wt/body wt ratio twice that in control group (ratio to estradiol dosage) (uterus): 1400 ratio to estradiol dosage | IC50 (SC-115 cells; [1]): 0.8 µM

C[C@]12CC[C@@H]3c4ccc(OCc5ccccc5)cc4CC[C@H]3[C@@H]1CC[C@@H]2OCCOC(=O)CCCc1ccc(N(CCCl)CCCl)cc1 [Compound I-5, 1-[3-benzyloxy-1,3,5(10)-estratriene-17β-oxy]-2-[4-[p-[bis(2-chloroethyl)amino]phenyl]-butyryloxy]ethane]
Dosage that gives a uterus wt/body wt ratio twice that in control group (ratio to estradiol dosage) (uterus): > 7000 ratio to estradiol dosage | IC50 (SC-115 cells; [1]): 0.5 µM

C[C@]12CC[C@@H]3c4ccc(OC(=O)c5ccccc5)cc4CC[C@H]3[C@@H]1CC[C@@H]2OCCOC(=O)CCCc1ccc(N(CCCl)CCCl)cc1 [Compound I-6, 1-[3-benzoyloxy-1,3,5(10)-estratriene-17β-oxy]-2-[4-[p-[bis (2-chloroethyl)amino]phenyl]-butyryloxy]ethane]
Dosage that gives a uterus wt/body wt ratio twice that in control group (ratio to estradiol dosage) (uterus): > 7000 ratio to estradiol dosage | IC50 (SC-115 cells; [1]): 1.5 µM

C[C@]12CC[C@@H]3c4ccc(OCc5ccccc5)cc4CC[C@H]3[C@@H]1CC[C@@H]2OCCO [II-1, 2-[3-benzyloxy-1,3,5 (10) -estratriene-17β-oxy]ethanol]
Dosage that gives a uterus wt/body wt ratio twice that in control group (ratio to estradiol dosage) (uterus): 200 ratio to estradiol dosage | IC50 (SC-115 cells; [3]): 0.2 µM | IC50 (DU-145 cells; Homo sapiens, 96 h, DU-145 cells, bFGF 1 ng/ml, 4 days, read-out: IC50): 2.9 µM

Cc1cc(OCc2ccccc2)cc2c1[C@H]1CC[C@]3(C)[C@@H](OCCO)CC[C@H]3[C@@H]1CC2 [II-2, 2-[3-benzyloxy-1,3,5(10) -estratriene-1-methyl-17β-oxy]ethanol]
Dosage that gives a uterus wt/body wt ratio twice that in control group (ratio to estradiol dosage) (uterus): > 7000 ratio to estradiol dosage | IC50 (SC-115 cells; [3]): 0.7 µM

Cc1cc(OC(=O)c2ccccc2)cc2c1[C@H]1CC[C@]3(C)[C@@H](OCCO)CC[C@H]3[C@@H]1CC2 [II-3, 2-[3-benzoyloxy-1,3,5(10) -estratriene-1-methyl-17β-oxy]ethanol]
Dosage that gives a uterus wt/body wt ratio twice that in control group (ratio to estradiol dosage) (uterus): > 7000 ratio to estradiol dosage | IC50 (SC-115 cells; [3]): 1.5 µM
